Experimental data reported in ChEMBL document CHEMBL1212839 (J Med Chem, 2010).

What was measured:
[1] = molecular target: Mu-type opioid receptor (Cavia porcellus) (UniProt P97266); conditions: Ileum, 1 uM
Substance-P receptor = Substance-P receptor (Homo sapiens, UniProt P25103); assay: Displacement of [3H]substance P frome human NK1 receptor
Mu-type opioid receptor [2] = molecular target: T1, Mu-type opioid receptor (Rattus norvegicus, UniProt P33535); assay: Displacement of [3H]DPDPE from rat mu opioid receptor
T1 sequence (P33535 whole entry): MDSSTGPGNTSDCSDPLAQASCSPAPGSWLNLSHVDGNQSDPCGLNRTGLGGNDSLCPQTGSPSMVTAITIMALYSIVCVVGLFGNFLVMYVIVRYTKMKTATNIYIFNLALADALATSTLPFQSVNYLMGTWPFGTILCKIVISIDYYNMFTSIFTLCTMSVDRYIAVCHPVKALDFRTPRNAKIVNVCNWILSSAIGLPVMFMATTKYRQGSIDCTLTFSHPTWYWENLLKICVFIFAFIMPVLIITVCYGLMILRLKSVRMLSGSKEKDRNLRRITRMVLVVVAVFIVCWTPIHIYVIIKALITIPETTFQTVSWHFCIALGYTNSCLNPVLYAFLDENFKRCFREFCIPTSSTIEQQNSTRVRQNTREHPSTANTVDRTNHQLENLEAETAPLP

[3] = molecular target: T2, Delta-type opioid receptor (Homo sapiens, UniProt P41143); assay: Displacement of [3H]DPDPE from human delta opioid receptor
T2 sequence (P41143 whole entry): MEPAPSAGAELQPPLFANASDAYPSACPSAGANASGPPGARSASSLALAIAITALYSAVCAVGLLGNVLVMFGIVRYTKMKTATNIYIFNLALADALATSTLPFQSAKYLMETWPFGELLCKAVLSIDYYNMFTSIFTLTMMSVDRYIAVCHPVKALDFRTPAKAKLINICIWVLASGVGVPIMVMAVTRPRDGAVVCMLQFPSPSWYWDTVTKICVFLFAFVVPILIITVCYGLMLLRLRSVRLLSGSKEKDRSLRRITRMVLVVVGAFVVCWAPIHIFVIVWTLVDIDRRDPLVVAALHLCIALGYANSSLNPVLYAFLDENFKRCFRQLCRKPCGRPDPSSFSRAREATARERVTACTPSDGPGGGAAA

[4] = molecular target: T2, Delta-type opioid receptor; assay: Agonist activity at human opioid delta receptor expressed in mouse HN9.10 cells assessed as [35S]GTPgammaS binding; format: functional, cell-based
Mu-type opioid receptor [5] = molecular target: T1, Mu-type opioid receptor; assay: Agonist activity at rat mu opioid receptor expressed in mouse HN9.10 cells assessed as [35S]GTPgammaS binding; format: functional, cell-based
[6] = molecular target: Mu-type opioid receptor (Rattus norvegicus) (UniProt P33535); assay: Agonist activity at rat mu opioid receptor expressed in mouse HN9.10 cells assessed as [35S]GTPgammaS binding relative to control; format: functional, cell-based
Sequence of Mu-type opioid receptor (Rattus norvegicus) (P33535 whole entry): as the sequence (P33535 whole entry) above

[7] = molecular target: T3, Delta-type opioid receptor (Mus musculus, UniProt P32300)
T3 sequence (P32300 whole entry): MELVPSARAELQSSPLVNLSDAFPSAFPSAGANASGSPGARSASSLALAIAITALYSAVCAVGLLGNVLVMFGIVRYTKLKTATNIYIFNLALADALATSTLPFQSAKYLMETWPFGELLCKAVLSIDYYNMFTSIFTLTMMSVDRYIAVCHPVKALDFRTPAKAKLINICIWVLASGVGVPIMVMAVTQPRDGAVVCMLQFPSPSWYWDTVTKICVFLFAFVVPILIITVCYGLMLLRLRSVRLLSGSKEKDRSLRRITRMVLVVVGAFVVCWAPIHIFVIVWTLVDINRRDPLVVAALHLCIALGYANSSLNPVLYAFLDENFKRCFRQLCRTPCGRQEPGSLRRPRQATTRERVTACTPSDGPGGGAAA

[8] = molecular target: Substance-P receptor (Cavia porcellus) (UniProt P30547); conditions: Ileum
Sequence of Substance-P receptor (Cavia porcellus) (P30547 whole entry): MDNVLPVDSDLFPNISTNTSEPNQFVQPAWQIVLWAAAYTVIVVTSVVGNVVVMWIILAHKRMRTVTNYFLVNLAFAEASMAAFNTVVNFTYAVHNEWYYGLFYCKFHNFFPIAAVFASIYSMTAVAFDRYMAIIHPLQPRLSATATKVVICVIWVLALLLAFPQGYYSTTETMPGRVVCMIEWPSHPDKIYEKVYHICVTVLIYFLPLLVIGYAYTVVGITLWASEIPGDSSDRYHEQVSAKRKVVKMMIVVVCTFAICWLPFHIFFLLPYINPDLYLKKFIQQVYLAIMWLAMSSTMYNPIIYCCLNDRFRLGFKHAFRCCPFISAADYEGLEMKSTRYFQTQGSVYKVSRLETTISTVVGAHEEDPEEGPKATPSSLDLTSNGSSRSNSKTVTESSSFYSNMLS

[9] = molecular target: T3, Delta-type opioid receptor; remark: listed apart in the source

Sequence of Substance-P receptor (P25103 whole entry): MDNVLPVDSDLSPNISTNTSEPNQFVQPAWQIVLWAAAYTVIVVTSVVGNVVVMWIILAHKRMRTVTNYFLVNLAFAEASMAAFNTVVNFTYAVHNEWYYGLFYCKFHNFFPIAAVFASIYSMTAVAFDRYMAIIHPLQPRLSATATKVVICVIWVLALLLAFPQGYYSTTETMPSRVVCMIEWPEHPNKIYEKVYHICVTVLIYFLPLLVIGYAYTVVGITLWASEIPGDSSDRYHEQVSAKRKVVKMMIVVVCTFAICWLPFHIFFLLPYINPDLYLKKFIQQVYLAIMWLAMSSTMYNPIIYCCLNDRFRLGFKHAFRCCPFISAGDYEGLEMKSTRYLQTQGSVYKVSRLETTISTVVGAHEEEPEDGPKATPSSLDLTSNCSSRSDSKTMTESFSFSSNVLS
Sequence of Mu-type opioid receptor (Cavia porcellus) (P97266 whole entry): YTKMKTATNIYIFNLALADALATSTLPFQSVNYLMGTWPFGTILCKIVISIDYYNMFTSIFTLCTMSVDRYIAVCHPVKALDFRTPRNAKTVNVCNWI

SMILES	inhibition [1] [%]	IC50 (Substance-P receptor) [nM]	IC50 (Mu-type opioid receptor [2]) [nM]	IC50 [3] [nM]	Ki (Substance-P receptor) [nM]	pIC50 (Substance-P receptor)	Ki (Mu-type opioid receptor [2]) [nM]	pIC50 (Mu-type opioid receptor [2])	Ki [3] [nM]	pIC50 [3]	EC50 [4] [nM]	EC50 (Mu-type opioid receptor [5]) [nM]	pEC50 (Mu-type opioid receptor [5])	Emax [6] [%]	IC50 [7] [nM]	Ke [8] [nM]	IC50 [9] [nM]
CC(C)C[C@H](NC(=O)[C@@H]1CCCN1C(=O)[C@@H]1NC(=O)[C@H](Cc2ccccc2)NC(=O)CNC(=O)[C@@H](NC(=O)[C@@H](N)Cc2ccc(O)cc2)C(C)(C)SSC1(C)C)C(=O)N[C@@H](Cc1c[nH]c2ccccc12)C(=O)NCc1cc(C(F)(F)F)cc(C(F)(F)F)c1	26																
CC(C)C[C@H](NC(=O)[C@@H]1CCCN1C(=O)[C@H]1NC(=O)[C@H](Cc2ccccc2)NC(=O)CNC(=O)[C@H](NC(=O)[C@@H](N)Cc2ccc(O)cc2)C(C)(C)SSC1(C)C)C(=O)N[C@@H](Cc1c[nH]c2ccccc12)C(=O)NCc1cc(C(F)(F)F)cc(C(F)(F)F)c1		0.0123	4370	3.63													
CCCC[C@@H]1NC(=O)[C@H](Cc2ccccc2)NC(=O)CNC(=O)[C@@H](NC(=O)[C@@H](N)Cc2ccc(O)cc2)C(C)(C)SSC(C)(C)[C@H](C(=O)N2CCC[C@H]2C(=O)N[C@@H](CC(C)C)C(=O)N[C@@H](Cc2c[nH]c3ccccc23)C(=O)NCc2cc(C(F)(F)F)cc(C(F)(F)F)c2)NC(=O)[C@@H]2CCCN2C1=O	6				59	6.87	2000	5.43	150	6.5	530	2900	5.67	15	250	72	
CCCC[C@@H]1NC(=O)[C@H](Cc2ccccc2)NC(=O)CNC(=O)[C@@H](NC(=O)[C@@H](N)Cc2ccc(O)cc2)C(C)(C)SSC(C)(C)[C@@H](C(=O)N2CCC[C@H]2C(=O)N[C@@H](CC(C)C)C(=O)N[C@@H](Cc2c[nH]c3ccccc23)C(=O)NCc2cc(C(F)(F)F)cc(C(F)(F)F)c2)NC(=O)[C@@H]2CCCN2C1=O	7	4.27	2040	1380	1.9		1000		720		120	140		26		66	1100
CC(C)C[C@H](NC(=O)[C@@H]1CCCN1C(=O)[C@H]1NC(=O)[C@H](Cc2ccccc2)NC(=O)CNC(=O)[C@@H](NC(=O)[C@@H](N)Cc2ccc(O)cc2)C(C)(C)SSC1(C)C)C(=O)N[C@@H](Cc1c[nH]c2ccccc12)C(=O)NCc1cc(C(F)(F)F)cc(C(F)(F)F)c1	0.6	0.417	4170	72.4	0.18		2100		38		120	130					
